Measured values as given in patent publication US11248016B2, “Glycolipids and pharmaceutical compositions thereof for use in therapy” (THE UNIVERSITY OF NOTTINGHAM, priority 2014, dated 2022).
“Also recorded” adds a separate entry of the source.

How the values were obtained:
[1] = test system: beta secretases (BACE) 5′UTR; assay: 5′UTR firefly luciferase reporter assay, BACE; format: cell-based, human; conditions: Neuroblastoma cells; FIG. 3d
Procedure: (§1) The 5′UTRs of genes which negatively associate with the progression of Alzheimer's disease—amyloid precursor protein (APP) and beta secretases (BACE) are all inhibited by treatment with a compound of Formula II, whereas the equivalent reporter levels of housekeeping genes actin and thioredoxin (TXN) are not inhibited. […] Neuroblastoma cells were transfected 24 hours prior to treatment with a compound of Formula II. After treatment, cells were prepared as described in the materials and methods. Each experiment represents between 6 and 8 biological repetitions.
(§2) Experiments conducted using Firefly luciferase reporter plasmids containing the 5′ untranslated regions (UTRs) of the genes amyloid precursor protein (APP), thioredoxin (TXN) were conducted with reagents and materials described by Bottley et al, 2010. Experiments conducted using Firefly luciferase reporter plasmids containing the 5′ UTRs of the genes EGFR, BACE1 and Actin were conducted with reagents and materials described by Webb, 2012 (http://etheses.nottingham.ac.uk/2724/). […]
(§3) Cells were transfected using FuGene 6 (Roche) following the manufacturer's instructions. The activities of firefly and renilla luciferase in lysates prepared from transfected cells were measured using a commercially available Luciferase reporter assay system (Promega) and light emission was measured over a 10 sec interval using a TECAN luminometer. […]

white blood cells = assay: White blood cells in the primary canine tissue sample; format: cell-based; conditions: seen under the microscope, 6 days
From the text: Known inhibitors of protein synthesis such as hippuristanol have proven potent anti-cancer properties when used in combination with chemotherapeutic agents such as Cisplatin™ or Doxorubicin™. However hippuristanol is naturally found in coral to is scarce and expensive to obtain, furthermore it is very difficult and expensive to synthesise. […] In particular this combination has a potent effect at slowing proliferation or killing cancer cells. Slow growing and difficult to treat tumour cell types such as A549 lung cancer cells, SH-SY5Y neuroblastoma or SKOV-3 cancer cells are all sensitised by exposure to Formula II to very low doses of Cisplatin™ (FIGS. 4d, 4e, 4f and 7)—a complete kill can be achieved in both A549 and SH-SY5Y cells after a single dose treatment with g quantities of a compound of Formula II in combination with 1 μM or 2.5 μM treatments of Cisplatin™. A similar effect is observed when rapidly growing tumour cell lines or primary tumour cells (FIG. 8) are treated with a compound of Formula II and chemotherapeutics such as Cisplatin™. In this example primary tumour cells were isolated from a dog and then in vitro exposed to the compound of Formula II and Cisplatin™. […]

[2] = test system: epidermal growth factor receptor (EGFR) 5′UTR; assay: 5′UTR firefly luciferase reporter assay, EGFR; format: cell-based, human; conditions: Neuroblastoma cells; FIG. 3d
Procedure: as §1
After treatment with the compound of Formula II the levels of translation of a reporter construct containing the 5′UTR of amyloid precursor protein, which is processed into toxic amyloid the major constituent of amyloid plaques in Alzheimer's disease, is inhibited relative to equivalent control treatments. […]
as §3

[3] = test system: CrPV IRES-dependent translation; assay: CrPV assay, IRES-dependent translation (Renilla luciferase); format: cell-based; conditions: 3 hours treatment
From the text: FIG. 12—CrPV assay—Natural molecule targets eIF4A.
By using a well characterised luciferase based reporter assay it was further determined that this class of molecule functions as a protein synthesis inhibitor via targeting the helicase eIF4A.

NLGN1 5′UTR = assay: NLGN translation reporter assay, neuroligin 1; format: cell-based, human; conditions: FIG. 5: 1 μM Hippuristanol, 1.3 μM compound; FIG. 10: compound 46
Procedure: The mechanism of action and level of activity of Formula II are consistent with and comparative to a proven translational inhibitor extracted from a rare coral species (Hippuristanol—a proven inhibitor of eIf4A). In this experiment 1 μM of Hippuristanol and 1.3 μM of Formula I was used
FIG. 10—Compound 46, NLGN Translation reporter assay.
Direct evidence is provided that inhibiting eIF4A represents a new route to treating ASD based on the data presented by Gkogkas et al. Nature 2013, 493:371-7.
Treatment with the compound of Formula II (and compound 46) (FIG. 5 and FIG. 10) selectively decrease the firefly luciferase signal from a reporter construct containing the NLGN1 5′UTR upstream of a firefly luciferase gene. The translation of luciferase reporters downstream of the NLGN1 5′UTR has been proven to be dependent on the activity of the translation initiation complex eIF4F (Gkogkas et al Nature 2013, 493:371-7)—a complex containing the helicase eIF4A. Equivalent treatment had little effect on the signal generated from either a co-transfected renilla luciferase reporter control or cells transfected with an equivalent construct containing the NLGN2 5′UTR upstream of a firefly luciferase gene (FIG. 5 and FIG. 10).
as §2, §3

CC/C=C\C/C=C\C/C=C\CCCCCCCC(=O)OC[C@H](COC1OC(CO)C(O)C(O)C1O)OC(=O)CCCCCCC/C=C\C/C=C\C/C=C\CC (stereo partly drawn) [Formula II, 1,2-dioctadecatienyl-3-O-β-D-galactosyl-sn-glycerol]
firefly luciferase reporter activity, BACE 5′UTR [1]: inhibited
white blood cells after Cisplatin and Formula II treatment (white blood cells): still alive
firefly luciferase reporter activity, EGFR 5′UTR [2]: selectively inhibited; also recorded: significant inhibition (p=0.005)
CrPV IRES-dependent translation (Renilla luciferase signal) [3]: but not CrPV IRES-dependent translation (Renilla luciferase signal), was inhibited
translation of NLGN1 5′UTR firefly luciferase reporter relative to neuroligin 2 (NLGN1 5′UTR): selectively reduces the translation
